The values below come from patent publication US20210369739A1, “COMBINATION THERAPY OF ACYLTHIOUREA COMPOUND AND ABIRATERONE” (TAIHO PHARMACEUTICAL CO., LTD., priority 2018, published 2021).

SMILES strings stand for the structures.

Data set [1] deals with bone metastasis of castration-resistant prostate cancer. Description: Combinational administration test: bone scintigraphy, Bone Scan Index (BSI). The data set is classed as in vivo, human. Particulars: with 1000 mg abiraterone acetate once a day. The procedure:
(§1) A methanesulfonate salt of compound I and abiraterone acetate were administered to patients of castration-resistant prostate cancer with bone metastasis as subjects, and the efficacy and side effects were evaluated. A schedule of administering the methanesulfonate salt of compound I in any of three doses in terms of the free form (200, 300, or 400 mg/body/day) to patients who were receiving secondary endocrine therapy before docetaxel treatment as subjects once a day for 5 days and taking a drug holiday of the compound I only for 2 days was repeated. During this period, 1000 mg of abiraterone acetate was administered to every dosage groups every day once a day, and six subjects were examined in each dosage group. […] In the side effects that determine this discontinuation of enrollment and evaluation, etc., abnormal clinical examination values, such as an increase in alanine aminotransferase (ALT), an increase in aspartate aminotransferase (AST), and an increase in blood creatine kinase (CK), are not included. […] Accordingly, since the number of cases for evaluation of each dosage group is small, i.e., 6 cases, from the viewpoint of the efficacy, side effects, and administration continuity, 6 cases at 300 mg/body/day were additionally evaluated.
Regarding the efficacy, bone scintigraphy to be used for detecting bone metastasis was implemented, and evaluation was performed based on Bone Scan Index (BSI) using analytical data by BONE NAVI and criteria of Response Evaluation Criteria in Solid Tumors (RECIST) guideline Version 1.1 or Prostate Cancer Clinical Trials Working Group 3 (PCWG3). […] The ANN value indicates the degree of confidence of metastasis on a scale from 0 to 1, and an ANN value exceeding 0.5 is assessed to have a risk of bone metastasis. In addition, in FIG. 1, the best value among BSI measured during the period of administration of the compound I is shown as Best response based on the bone metastasis on the day of starting the administration in each dosage group.

Data set [2] can be described thus: Combinational administration test: seriousness of side effects (CTCAE Ver. 4.03). The data set is classed as in vivo, human. Particulars: every dosage group; in combination with abiraterone acetate. The protocol: as §1, with “additionally evaluated. […]” for “additionally evaluated.”

Take `CNC(=O)c1cc2c(Oc3ccc(NC(=S)NC(=O)Cc4ccccc4)cc3F)ccnc2cc1OC` [compound I, 4-(2-fluoro-4-(3-(2-phenylacetyl)thioureido)phenoxy)-7-methoxy-N-methylquinoline-6-carboxamide]: the “suppression of bone metastasis observed (BSI)” value in data set [1] (200 mg/body/day as free form, once a day for 5 days then 2-day holiday, CRPC patients with bone metastasis) is “two of six”; in data set [1] (400 mg/body/day as free form, bone metastasis not measurable in one of six cases) it was “five of the remaining five”. For the same molecule, the “BSI value became 0” value in data set [1] (300 mg/body/day, among the 10 cases with suppression) is reported as “three”. Also, in data set [2], the side effects entry was “acceptable”.
